Data as given in patent US6677328B1, “Method for the prevention of colonic adenomas” (priority 1995, dated 2004).

Experiments:
Assay type in all cases: in vivo, Male Fischer 344 rats
[1] = system: azoxymethane-induced colon neoplasms in Fischer 344 rats; test: Azoxymethane rat model, 7 diets, two study centers (Example 3)
Protocol: The control group diet is not supplemented at all. After 2 weeks, half of the rats in each group receive azoxymethane (15 mg/kg) or azoxymethane vehicle subcutaneously once a week for two weeks. […] After 28 weeks, the rats are sacrificed, the colons harvested and examined for neoplasms.

[2] = system: azoxymethane-induced colon neoplasms in Fischer 344 rats; test: Azoxymethane rat model, incidence of microadenomas, adenomas and cancers (Example 2); set-up: Tumor bearing rats, benign (microadenoma) / Tumor bearing rats, benign (adenoma) / Tumor bearing rats, malignant (cancers) / Tumor bearing rats, total: unit not given here; conditions: for Tumor bearing rats, total / Tumor bearing rats, benign (adenoma) / Tumor bearing rats, benign (microadenoma) / Tumor bearing rats, malignant (cancers): azoxymethane model as Example 1
Protocol: (§1) The control group diet is not supplemented at all. After 2 weeks, half of the rats in each group receive azoxymethane (15 mg/kg) or azoxymethane vehicle subcutaneously once a week for two weeks. […] After 28 weeks, the rats are sacrificed, the colons harvested and examined for neoplasms. None of the rats injected with azoxymethane vehicle develop tumors. Since it is believed that malignancies develop from adenomas, the total tumor bearing rat values are particularly enlightening as this represents the number of growths that are still in the adenoma stage and the number of growths that have continued to progress to cancers. Ursodiol reduced the number of growths from control by 50%, with a 100% reduction in those that progressed to cancers and a 33% reduction in the number of tumors that still remained as adenomas.
The procedure of Example 1 was followed except that the number of rats involved are as stated in the table below and aberrant crypt frequency was examined upon sacrifice of the rats. The incidence of microadenomas, adenomas, and cancers in the tested populations was recorded and appears in the table below.

[3] = system: azoxymethane-induced colon neoplasms in Fischer 344 rats; test: Azoxymethane-induced colon tumors in rats on supplemented AIN-76 diet (Example 1); conditions: for Tumor bearing rats, total, number / Tumor bearing rats, benign (adenoma), number / Tumor bearing rats, benign (adenoma), {%} / Tumor bearing rats, malignant (cancers), number / Tumor bearing rats, malignant (cancers), {%} / Tumor bearing rats, total, {%}: azoxymethane 15 mg/kg s.c., sacrifice after 28 weeks
Protocol: as §1

[4] = Study Center 2, standard diet + 0.2%
[5] = Study Center 2, standard diet + 0.4%
[6] = Study center 1, standard diet + 0.2%
[7] = Study center 1, standard diet + 0.4%
[8] = Study Center 2, standard diet + Piroxicam, level not given
[9] = Study center 1, standard diet + Piroxicam, level not given
[10] = piroxicam diet, level not given

Structure (SMILES) | Tumor bearing rats, benign [1, 4] | Tumor bearing rats, malignant [1, 4] | Tumor bearing rats, total [1, 4] | Tumor bearing rats, benign [1, 5] | Tumor bearing rats, malignant [1, 5] | Tumor bearing rats, total [1, 5] | Tumor bearing rats, benign [1, 6] | Tumor bearing rats, malignant [1, 6] | Tumor bearing rats, total [1, 6] | Tumor bearing rats, benign [1, 7] | Tumor bearing rats, malignant [1, 7] | Tumor bearing rats, total [1, 7] | Tumor bearing rats, benign (adenoma) ([2]; diet supplement 0.4%) | Tumor bearing rats, benign (microadenoma) ([2]; diet supplement 0.4%) | Tumor bearing rats, malignant (cancers) ([2]; diet supplement 0.4%) | Tumor bearing rats, benign (adenoma), number ([3]; diet supplement 0.4%) | Tumor bearing rats, benign (adenoma), {%} ([3]; diet supplement 0.4%) [%] | Tumor bearing rats, malignant (cancers), number ([3]; diet supplement 0.4%) | Tumor bearing rats, malignant (cancers), {%} ([3]; diet supplement 0.4%) | Tumor bearing rats, total, {%} ([3]; diet supplement 0.4%) [%] | other results
C[C@H](CCC(=O)O)[C@H]1CC[C@H]2[C@@H]3[C@H](O)C[C@@H]4C[C@H](O)CC[C@]4(C)[C@H]3C[C@H](O)[C@]12C [Cholic Acid, Cholic acid] | 6 | 8 | 14 | 8 | 9 | 17 | 12 | 4 | 16 | 12 | 5 | 17 | 71 | 57 | 38 | 20 | 43 | 14 | 30% | 73 | Tumor bearing rats, total [2]: 166; Effect on number of adenomas present ([3]; 0.4% in diet, in words): increased the number of adenomas which were present; Effect on number of malignancies over control ([3]; 0.4% in diet, in words): increased the number of malignancies over control; Tumor bearing rats, total, number ([3]; control, diet not supplemented): 34
CN1C(C(=O)Nc2ccccn2)=C(O)c2ccccc2S1(=O)=O [Piroxicam] |  |  |  |  |  |  |  |  |  |  |  |  |  |  |  |  |  |  |  |  | Tumor bearing rats, benign [1, 8]: 8; Tumor bearing rats, malignant [1, 8]: 2; Tumor bearing rats, total [1, 8]: 10; Tumor bearing rats, benign [1, 9]: 8; Tumor bearing rats, malignant [1, 9]: 1; Tumor bearing rats, total [1, 9]: 9; Tumor bearing rats, benign (adenoma) [2, 10]: 42; Tumor bearing rats, benign (microadenoma) [2, 10]: 25; Tumor bearing rats, malignant (cancers) [2, 10]: 8; Tumor bearing rats, total [2, 10]: 75; Effect on adenomas and malignancies ([3]; 75 ppm in diet, in words, compared with ursodiol): reduced both adenomas and malignancies, but neither was reduced as dramatically as seen with ursodiol administration; Tumor bearing rats, benign (adenoma), number ([3]; diet supplement 75 ppm): 16; Tumor bearing rats, benign (adenoma), {%} ([3]; diet supplement 75 ppm): 29%; Tumor bearing rats, malignant (cancers), number ([3]; diet supplement 75 ppm): 3; Tumor bearing rats, malignant (cancers), {%} ([3]; diet supplement 75 ppm): 5%; Tumor bearing rats, total, number ([3]; diet supplement 75 ppm): 19; Tumor bearing rats, total, {%} ([3]; diet supplement 75 ppm): 34%
C[C@H](CCC(=O)O)[C@H]1CC[C@H]2[C@@H]3[C@@H](O)C[C@@H]4C[C@H](O)CC[C@]4(C)[C@H]3CC[C@]12C [Ursodiol, 3-α-7-β-dihydroxy-5-β-cholan-24-oic acid] | 6 | 4 | 10 | 6 | 0 | 6 | 8 | 5 | 13 | 4 | 0 | 4 | 27 | 23 | 0 | 10 | 22 | 0 {0} | 0 {0} % | 22 | Effect in preventing the development of tumors at lower concentration ([1]; 0.2% in diet compared with 0.4%, in words): does not seem to be as strong as lower concentrations of ursodiol, i.e., 0.2%; Effect on incidence of malignancies and on number and size of non-cancerous or pre-cancerous growths ([2]; 0.4% in diet, in words): not only reduces the incidence of malignancies, but also reduces both the number and size of the non-cancerous or pre-cancerous growths; Tumor bearing rats, total ([2]; diet supplement 0.4%): 50; Reduction of the number of growths from control ([3]; 0.4% in diet, total tumor bearing rats vs control): 50%; Reduction in growths that progressed to cancers ([3]; 0.4% in diet, vs control): 100%; Reduction in the number of tumors that still remained as adenomas ([3]; 0.4% in diet, vs control): 33%; Tumor bearing rats, total, number ([3]; diet supplement 0.4%): 10
